{"source": "patent US20230332232A1", "about": "“COMPOSITIONS AND METHODS FOR DIAGNOSING AND TREATING A DYSTONIA” (Duke University, priority 2020, published 2023)", "origin": "cited, not measured here", "key": {"[1]": {"tested_on": "ΔE Torsin1a", "conditions": "ΔE Torsin1a abnormal punctate pattern; cited from earlier work"}, "[2]": {"tested_on": "DYT1 patient-derived fibroblasts", "conditions": "cited from earlier work"}}}
{"smiles": "O=C(O)CCCc1ccccc1", "note": "[PBA, phenylbutyric acid]", "values": [{"measurement": "punctate pathology", "setting": "[1]", "value": "significantly reduced punctate pathology"}, {"measurement": "indicators of UPR activation", "setting": "[2]", "value": "reduces indicators of UPR activation"}]}
